Assay results: PMC8175851, “Effects of Genetic Polymorphism in CYP2D6, CYP2C19, and the Organic Cation Transporter OCT1 on Amitriptyline Pharmacokinetics in Healthy Volunteers and Depressive Disorder Patients” (Frontiers in Pharmacology, 2021)
Like-named read-outs stand apart in the source and are kept apart here.

What was measured:
[1] = Pharmacokinetics of AT and NT in healthy volunteers after a single dose of 25 mg amitriptyline; format: in vivo, human; settings: healthy volunteers; for half-life / Tmax / AUC(0-inf) / Cmax / AUC(0-t): human, plasma, po, 25 mg; for half-life / Tmax / AUC(0-inf) / Cmax / Vz / CL / AUC(0-t): single oral 25 mg AT; for AUC(0-inf): read-out: AUCinf; for AUC(0-t): read-out: AUC48h
From the text: In order to enrich the study sample with the less frequent functionally deficient OCT1 variants, participants were selected based on OCT1 genotype from an internal database at the Institute of Clinical Pharmacology of the University Medical Center Göttingen. All volunteers who are listed in the internal database had agreed to it and the database was approved by the ethics committee of the University of Göttingen. […] Additional subjects with heterozygous genotypes were included to provide a better understanding of the effects of specific variants and the mode of inheritance. All volunteers gave their written informed consent before participation in the study. The study was approved by the ethics committee of the University of Göttingen and the German Federal Institute for Drugs and Medical Devices (BfArM). It was registered at the clinical trials databases Clinicaltrials.gov (NCT02054299) and EudraCT (number 2012-003546-33). […] Volunteers who underwent regular drug treatments other than oral contraceptives or who suffered from any relevant chronic illness, as well as pregnant or lactating women, were not included. All subjects were healthy according to a detailed medical history, medical examination, electrocardiogram, urine status and clinical chemistry, and haematology parameters (sodium, potassium, total bilirubin, aspartate aminotransferase, alanine-aminotransferase, creatinine, C-reactive protein, thyroid-stimulating hormone, haemoglobin, erythrocyte, thrombocyte, and leucocyte counts). […] After centrifugation (13,000 rpm, 15 min, room temperature), two-thirds of the supernatant were transferred to a new reaction tube and evaporated at 40°C under nitrogen flow. The residue was reconstituted under shaking in 0.1% methanoic acid and briefly centrifuged before quantification using a Nexera UHPLC system (Shimadzu, Kyoto, Japan) coupled to an API 4000 tandem mass spectrometer (AB Sciex, Darmstadt, Germany). […] PerkinElmer, Rodgau, Germany) with a Phenomenex C18 pre-column (4 × 2 mm, Phenomenex, Aschaffenburg, Germany). […] The lower limit of quantification was 0.5 ng/ml for AT and 0.1 ng/ml for NT. […] The mass spectrometry detection parameters are listed in Supplementary Table S1. For the study in healthy volunteers, the primary endpoints were the AUCs of plasma AT and NT concentrations. Secondary endpoints were the other pharmacokinetic parameters of AT and NT, as well as heart rate, blood pressure, pupil size effects, and possible adverse events (headache, fatigue, visual or hearing impairments, restlessness, nausea, dizziness, dry mouth, tremor, as well as sensations of hypothermia and heart palpitations determined using a visual analogue scale test). Pharmacokinetic parameters were calculated by non-compartmental analysis using Phoenix 64 WinNonlin version 6.3 (Certara Inc., Princeton, NJ, United States). AUCinf of AT was calculated from the time of dosing using the linear/log trapezoidal rule and extrapolated to infinity based on the last predicted concentration and using the terminal elimination rate constant (lambda z). AUC of NT was calculated from the time of dosing until the last measurement at 48 h using the linear/log trapezoidal rule, as a decline in NT concentrations was not observed in some subjects and extrapolation to infinity thus not possible.

[2] = no reference given, cited from earlier work
OCT1 = assay: Plasma acylcarnitine concentrations as endogenous biomarkers for OCT1 activity in healthy volunteers; format: in vivo, human
Protocol: The peripheral venous blood samples of the healthy volunteers were treated with ethylenediaminetetraacetic acid (EDTA) for anticoagulation, centrifuged within 30 min after withdrawal (3,100 × g, 10 min, room temperature), and the plasma was stored at −20°C. For determining the plasma concentrations of AT, NT, IBC, 2-methylbutyrylcarnitine, and propionylcarnitine, plasma samples were mixed with twice the volume precipitation reagent of 10% (v/v) methanol and 90% (v/v) acetonitrile that included the corresponding deuterated internal standards AT-d6 (Biozol Diagnostica GmbH, Eching, Germany), NT-d3, IBC-d6, 2-methylbutyrylcarnitine-d9, and propionylcarnitine-d3 and d9 (all Santa Cruz Biotechnology, Heidelberg, Germany) and shaken for 15 min. After centrifugation (13,000 rpm, 15 min, room temperature), two-thirds of the supernatant were transferred to a new reaction tube and evaporated at 40°C under nitrogen flow. The residue was reconstituted under shaking in 0.1% methanoic acid and briefly centrifuged before quantification using a Nexera UHPLC system (Shimadzu, Kyoto, Japan) coupled to an API 4000 tandem mass spectrometer (AB Sciex, Darmstadt, Germany). Separation was done using a Brownlee SPP RP-Amide column (4.6 × 100 mm inner dimensions, 2.7 µm particle size; PerkinElmer, Rodgau, Germany) with a Phenomenex C18 pre-column (4 × 2 mm, Phenomenex, Aschaffenburg, Germany). For AT and NT, the mobile phase consisted of 0.1% (v/v) methanoic acid, 5.3% (v/v) methanol, and 31.7% (v/v) acetonitrile in water. For the carnitine derivatives, it consisted of 0.1% (v/v) methanoic acid, 0.43% (v/v) methanol, and 2.57% (v/v) acetonitrile in water. The lower limit of quantification was 0.5 ng/ml for AT and 0.1 ng/ml for NT. […]
In order to investigate the proposed suitability of IBC as a human in vivo biomarker for OCT1 activity ([Luo et al., 2020]), plasma concentrations of IBC as well as of 2-methylbutyrylcarnitine and propionylcarnitine were determined in a subgroup of 18 volunteers who participated in the study on AT pharmacokinetics. […]

[3] = both sexes, CYP2D6 activity 2 (n = 11), mean
[4] = both sexes, CYP2D6 activity 2.5 (n = 1), mean
[5] = both sexes, CYP2D6 activity 3 (n = 2), mean
[6] = CYP2C19 activity score 0 (n = 1), mean
[7] = CYP2C19 activity score 3 (n = 1), mean

## CN(C)CCC=C1c2ccccc2CCc2ccccc21 [Amitriptyline, amitriptyline]
[1]; both sexes, CYP2D6 activity 1.5 (n = 6), mean
  half-life: 1190 min
[1]; [3]
  Tmax: 3.4 h
  half-life: 1170 min
[1]; [4]
  Tmax: 6 h
  half-life: 840 min
[1]; [5]
  Tmax: 2 h
  half-life: 1240 min
[1]; both sexes, OCT1 genotype *1 / *1 (n 14), mean ± standard deviation
  AUC(0-inf): 243 ± 88 ng·h/mL
[1]; both sexes, OCT1 genotype *1 / *2 (n 3), mean ± standard deviation
  AUC(0-inf): 273 ± 59 ng·h/mL
[1]; both sexes, OCT1 genotype *1 / *3 (n 4), mean ± standard deviation
  AUC(0-inf): 216 ± 87 ng·h/mL
[1]; both sexes, OCT1 genotype *1 / *4 (n 2), mean ± standard deviation
  AUC(0-inf): 187 ± 49 ng·h/mL
[1]; both sexes, OCT1 genotype *2 / *2 (n 3), mean ± standard deviation
  AUC(0-inf): 202 ± 92 ng·h/mL
[1]; both sexes, OCT1 genotype *2 / *3 (n 4), mean ± standard deviation
  AUC(0-inf): 189 ± 53 ng·h/mL
[1]; both sexes, OCT1 genotype *2 / *5 (n 1)
  AUC(0-inf): 298 ng·h/mL
[1]; both sexes, OCT1 genotype *3 / *3 (n 3), mean ± standard deviation
  AUC(0-inf): 172 ± 28 ng·h/mL
[1]; both sexes, OCT1 genotype *3 / *4 (n 1)
  AUC(0-inf): 215 ng·h/mL
[1]; both sexes, read-out: average Cmax
  Cmax: 39 nM
[1]; both sexes, read-out: average Cmax (average peak plasma concentration)
  Cmax: 10.7 ng/mL
[1]; 25 mg AT, from peak plasma concentration with 95% plasma protein binding
  peak concentration of unbound AT: 0.54 µg/L
[1]; 0 active OCT1 alleles (n = 12)
  Vz: 3,828 ± 800 L
[1]; 1 active OCT1 allele (n = 9)
  Vz: 3,610 ± 1,633 L
[1]; 2 active OCT1 alleles (n = 14)
  Vz: 3,401 ± 1,041 L
[1]; CL/F = dose/AUCinf, 0 active OCT1 alleles (n = 12)
  CL: 2.3 ± 0.6 L/min
[1]; CL/F = dose/AUCinf, 1 active OCT1 allele (n = 9)
  CL: 2.0 ± 0.8 L/min
[1]; CL/F = dose/AUCinf, 2 active OCT1 alleles (n = 14)
  CL: 1.9 ± 0.6 L/min
[1]; CL/F, CYP2C19 activity score 0 (n = 1), mean
  CL: 1.30 L/min
[1]; CL/F, CYP2C19 activity score 1 (n = 5), mean
  CL: 1.94 L/min
[1]; CL/F, CYP2C19 activity score 1.5 (n = 2), mean
  CL: 1.5 L/min
[1]; CL/F, CYP2C19 activity score 2 (n = 16), mean
  CL: 2.1 L/min
[1]; CL/F, CYP2C19 activity score 2.5 (n = 10), mean
  CL: 2.2 L/min
[1]; CL/F, CYP2C19 activity score 3 (n = 1), mean
  CL: 1.54 L/min
[1]; CL/F, CYP2D6 activity 0 (n = 3), mean
  CL: 1.45 L/min
[1]; CL/F, CYP2D6 activity 0.5 (n = 2), mean
  CL: 2.09 L/min
[1]; CL/F, CYP2D6 activity 1 (n = 10), mean
  CL: 1.81 L/min
[1]; CL/F, CYP2D6 activity 1.5 (n = 6), mean
  CL: 2.03 L/min
[1]; CL/F, CYP2D6 activity 2 (n = 11), mean
  CL: 2.25 L/min
[1]; CL/F, CYP2D6 activity 2.5 (n = 1), mean
  CL: 2.64 L/min
[1]; CL/F, CYP2D6 activity 3 (n = 2), mean
  CL: 2.92 L/min
[1]; [6]
  Vz: 3,004 L
  AUC(0-t): 229 ng·h/mL
  AUC(0-inf): 321 ng·h/mL
  Tmax: 4 h
  half-life: 1600 min
[1]; CYP2C19 activity score 1 (n = 5), mean
  Vz: 3,525 L
[1]; CYP2C19 activity score 1.5 (n = 2), mean
  Vz: 2,559 L
[1]; CYP2C19 activity score 2 (n = 16), mean
  Vz: 3,696 L
[1]; CYP2C19 activity score 2.5 (n = 10), mean
  Vz: 3,740 L
[1]; [7]
  Vz: 3,762 L
  AUC(0-t): 198 ng·h/mL
  AUC(0-inf): 271 ng·h/mL
  Tmax: 2 h
  half-life: 1700 min
[1]; CYP2D6 activity 0 (n = 3), mean
  Vz: 2,982 L
[1]; CYP2D6 activity 0.5 (n = 2), mean
  Vz: 4,189 L
[1]; CYP2D6 activity 1 (n = 10), mean
  Vz: 3,269 L
[1]; CYP2D6 activity 1.5 (n = 6), mean
  Vz: 3,446 L
[1]; CYP2D6 activity 2 (n = 11), mean
  Vz: 3,768 L
[1]; CYP2D6 activity 2.5 (n = 1), mean
  Vz: 3,192 L
[1]; CYP2D6 activity 3 (n = 2), mean
  Vz: 5,361 L
[1]; CYP2C19 activity score 0 (n = 1), mean, read-out: Cmax
  Cmax: 11.5 ng/mL
[1]; CYP2C19 activity score 3 (n = 1), mean, read-out: Cmax
  Cmax: 13.9 ng/mL
[2]; at physiological pH
  positively charged fraction: approximately 99%
[2]; pH 7.4
  logD7.4: 3
OCT1; 2 h after 25 mg AT administration
  plasma IBC concentration relative to baseline IBC concentration: 72%
OCT1; 4 h after 25 mg AT administration
  plasma IBC concentration relative to baseline IBC concentration: 67%
OCT1; after 25 mg AT
  decrease in IBC plasma concentration observed in vivo: 33%
